Structures can show the parent of a compound that is named as a salt.

We go through eight compounds from patent publication US8383619B2, “Pharmaceutical compounds” (Astex Therapeutics Limited, priority 2008, dated 2013).

A short description of series [1]: Tolerability, four consecutive daily doses. In kind it is in vivo, mouse.
Series [2] can be described thus: Liver homogenate stability. In kind it is in vitro ADME. The conditions noted are these: 1 μM, 37° C., 120 mins. The source says: (§1) The breakdown of a prodrug in vivo could occur in one or more of several different compartments including for example, but not limited to blood/plasma, liver, stomach, target tissue (e.g. tumour). The preferred location for optimum formation of the parent drug will depend on the disposition in vivo of the pro-drug and parent and an understanding of the optimum concentrations of each required in the circulation to maximise exposure to the active moiety in the target tissue. The potential for pro-drug molecules to deliver the active parent drug may be assessed in vitro by measuring the breakdown of a pro-drug in the presence of relevant body fluids. For the purpose of gaining a preliminary understanding of the stability of compounds of the invention to enzymatic hydrolysis in two such bodily compartments, compound turnover has been studied following incubation in whole blood and liver homogenate from mice and humans. The data obtained from these studies provide a preliminary understanding of which of the prodrugs are better able to deliver parent compound (i.e. are more rapidly broken down to parent compound) in these compartments. Further studies could also determine stability in other compartments (e.g. in the target tumours by measuring stability in tumour lysates).
Mouse livers were obtained from 20 male mice, strain: Balb/c from stock animals. Human liver tissue was obtained from 3 individuals sourced from a UK human tissue bank. The livers were stored frozen. The livers were defrosted and then homogenised to form a homogenate of approximately 30% (w/v) in phosphate buffer, 100 mM, pH 7.4 (referred to as ‘buffer’). Homogenates were kept on ice until use.
(§2) Each incubation consisted of a volume of 1 mL. Test compound dosing solutions were then spiked into each homogenate at a final compound concentration of 1 μM. Incubations were performed in the atmosphere in a shaking water bath at 37° C.
(§3) An aliquot of incubation samples was removed into an equal volume of ice-cold acetonitrile at various time points. Samples (whole blood/homogenate+acetonitrile) were centrifuged and aliquots of the supernatant were analysed by HPLC-MS/MS.
(§4) The compound X (2,4-dihydroxy-5-isopropyl-phenyl)-[5-(4-methyl-piperazin-1-ylmethyl)-1,3-dihydro-isoindol-2-yl]-methanone) and the compounds of Examples 1 to 24 were incubated in both whole blood and liver homogenate by Quotient Bioresearch (Rushden, UK). The percentage remaining of parent compound following incubation in whole blood/liver homogenate from human and mouse are set out in the table below.

A short description of the next series: Whole blood stability. Format: in vitro ADME. To be noted: 1 μM, 37° C.
From the text: as §1
For these studies, human whole blood was collected from 3 male healthy volunteers in lithium heparin tubes. The blood was pooled and stored at room temperature for a maximum of 2 hours prior to initiation of incubations. Mouse blood was collected from 70 male mice, strain: Balb/c into lithium heparin tubes and pooled.
as §2, §3, §4

Series [3] is described as follows: Mouse pharmacokinetics, oral gavage. In kind it is in vivo, Balb/c mice. The conditions noted are these: compared with examples 16 and 11. As to the method: Balb/c mice are dosed with a prodrug by oral gavage. A single administration of one of the 24 examples is given and a dose volume of 10 mL/kg is used for PO doses.
Blood samples are collected in lithium heparin coated tubes at selected time points.
Plasma is isolated by centrifugation and frozen before analysis.
Plasma samples are prepared by liquid-liquid extraction with Acetonitrile containing internal standard. Quantification is by comparison with a standard calibration line constructed with each compound and using a LC-MS/MS method specific to each compound. Animals that had been dosed one of the 24 examples were analysed for prodrug and compound X (2,4-dihydroxy-5-isopropyl-phenyl)-[5-(4-methyl-piperazin-1-ylmethyl)-1,3-dihydro-isoindol-2-yl]-methanone). Pharmacokinetics parameters are calculated using WinNonLin® non compartmental analysis software.
The plasma AUC0.25-2 hrs after PO administration of selected examples are set out in the table below. For examples 16, 17 and 11, plasma AUC0.25-2 hrs was determined following a single dose of 120 μmoles/kg or 240 μmoles/kg.

With `CC(C)c1cc(C(=O)N2Cc3ccc(CN4CCN(C)CC4)cc3C2)c(OC(=O)N(C)C)cc1OC(=O)N(C)C` [Example 11, dimethyl-carbamic acid 5-dimethylcarbamoyloxy-2-isopropyl-4-[5-(4-methyl-piperazin-1-ylmethyl)-1,3-dihydro-isoindole-2-carbonyl]-phenyl ester], in series [1] (four consecutive daily doses at 240 μmoles/kg), the tolerability result is listed as “well tolerated”. In addition, in series [2], the “Percentage remaining Human Liver” value is given as 31% and the “Percentage remaining Mouse Liver” value is recorded as 1%. Further, in the series “Whole blood stability” (120 mins), the “Percentage remaining Human blood” value is 93% and the “Percentage remaining Mouse blood” value worked out at 38%.

Consider `CC(C)c1cc(C(=O)N2Cc3ccc(CN4CCN(C)CC4)cc3C2)c(O)cc1OC(=O)N(C)C` [Example 17, dimethyl-carbamic acid 5-hydroxy-2-isopropyl-4-[5-(4-methyl-piperazin-1-ylmethyl)-1,3-dihydro-isoindole-2-carbonyl]-phenyl ester], for which the tolerability result in series [1] (four consecutive daily doses at 120 μmoles/kg) was “well tolerated”. Moreover, in series [2], the “Percentage remaining Human Liver” value came out at 0% and the “Percentage remaining Mouse Liver” value is 0%. In “Whole blood stability” (120 mins), the “Percentage remaining Human blood” value is on record as 90% and the “Percentage remaining Mouse blood” value is listed as 24%. Besides, in series [3], the “exposure of the active pharmaceutical agent relative to the starting dose” value is on record as “optimal exposure of the active pharmaceutical agent relative to the starting dose”.

For the compound `CC(C)c1cc(C(=O)N2Cc3ccc(CN4CCN(C)CC4)cc3C2)c(O)cc1OC(=O)N1CCCC1` [Example 19, 2-[4-(pyrrolidin-1-ylcarbonyloxy)-2-hydroxy-5-isopropyl-benzoyl]-5-(4-methyl-piperazin-1-ylmethyl)-1,3-dihydro-isoindole], in series [2], the “Percentage remaining Human Liver” value was determined as 0% and the “Percentage remaining Mouse Liver” value was found to be 0%. In addition, the “Percentage remaining Mouse blood” value in “Whole blood stability” (60 mins (footnote *)) stood at 79% *. Moreover, the “Percentage remaining Human blood” value in the series “Whole blood stability” (120 mins) is 102%.

Consider `CC(C)c1cc(C(=O)N2Cc3ccc(CN4CCN(C)CC4)cc3C2)c(OC(=O)N2CCOCC2)cc1O` [Example 20, 2-[2-(morpholin-4-ylcarbonyloxy)-4-hydroxy-5-isopropyl-benzoyl]-5-(4-methyl-piperazin-1-ylmethyl)-1,3-dihydro-isoindole], for which, in series [2], the “Percentage remaining Human Liver” value worked out at 23% and the “Percentage remaining Mouse Liver” value turned out to be 45%. Also, in the series “Whole blood stability” (120 mins), the “Percentage remaining Human blood” value came out at 97% and the “Percentage remaining Mouse blood” value amounted to 16%.

Turning to `CC(C)c1cc(C(=O)N2Cc3ccc(CN4CCN(C)CC4)cc3C2)c(O)cc1OC(=O)N1CCOCC1` [Example 21, 2-[4-(morpholin-4-ylcarbonyloxy)-2-hydroxy-5-isopropyl-benzoyl]-5-(4-methyl-piperazin-1-ylmethyl)-1,3-dihydro-isoindole], in series [2], the “Percentage remaining Human Liver” value was 0% and the “Percentage remaining Mouse Liver” value is 0%. Besides, in the series “Whole blood stability” (120 mins), the “Percentage remaining Human blood” value was found to be 82% and the “Percentage remaining Mouse blood” value turned out to be 0%.

With `CC(C)c1cc(C(=O)N2Cc3ccc(CN4CCN(C)CC4)cc3C2)c(OC(=O)OC(C)(C)C)cc1OC(=O)N(C)C` [Example 22, Carbonic acid tert-butyl ester 5-dimethylcarbamoyloxy-4-isopropyl-2-[5-(4-methyl-piperazin-1-ylmethyl)-1,3-dihydro-isoindole-2-carbonyl]-phenyl ester], in series [2], the “Percentage remaining Human Liver” value came to 6% and the “Percentage remaining Mouse Liver” value was 0%. Also, in “Whole blood stability” (120 mins), the “Percentage remaining Human blood” value is listed as 18% and the “Percentage remaining Mouse blood” value came to 0%.

Take `CC(C)c1cc(C(=O)N2Cc3ccc(CN4CCN(C)CC4)cc3C2)c(OC(=O)OC(C)(C)C)cc1OC(=O)OC(C)(C)C` [Example 23, Carbonic acid 5-tert-butoxycarbonyloxy-4-isopropyl-2-[5-(4-methyl-piperazin-1-ylmethyl)-1,3-dihydro-isoindole-2-carbonyl]-phenyl ester tert-butyl ester]: in series [2], the “Percentage remaining Human Liver” value is recorded as 1% and the “Percentage remaining Mouse Liver” value is listed as 0%. Moreover, in the series “Whole blood stability” (120 mins), the “Percentage remaining Human blood” value came to 26% and the “Percentage remaining Mouse blood” value is listed as 0%.

For `CC(C)c1cc(C(=O)N2Cc3ccc(CN4CCN(C)CC4)cc3C2)c(OC(=O)C(C)(C)C)cc1OC(=O)C(C)(C)C` [Example 24, 2,2-Dimethyl-propionic acid 5-(2,2-dimethyl-propionyloxy)-2-isopropyl-4-[5-(4-methyl-piperazin-1-ylmethyl)-1,3-dihydro-isoindole-2-carbonyl]-phenyl ester dihydrochloride], in series [2], the “Percentage remaining Human Liver” value was found to be 2% and the “Percentage remaining Mouse Liver” value is 0%. For the same compound, in “Whole blood stability” (120 mins), the “Percentage remaining Human blood” value amounted to 11% and the “Percentage remaining Mouse blood” value is given as 0%.
